Assay results as given in PMC11714206, “Massively Parallel Screening of Toll/Interleukin‐1 Receptor (TIR)‐Derived Peptides Reveals Multiple Toll‐Like Receptors (TLRs)‐Targeting Immunomodulatory Peptides” (Advanced Science, 2024).

Target: T1, MyD88^TIR (Homo sapiens, UniProt Q99836)
T1 construct: MyD88 (residues 148–296); 6xHis; made in house; host or cells: E. coli BL21 (DE3)
Assay: T‐Surf phage library (P8 and P3) selection against MyD88^TIR, four rounds, NGS read counts
Assay type: binding
Conditions: for P3_MyD88 Rank (after) / P3_MyD88 Rank (before): P3 library; for P8_MyD88 Rank (after) / P8_MyD88 Rank (before): P8 library; for Population: 4th round of selection against MyD88 TIR, share of NGS reads
Method in brief: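 Read counts come from NGS of phage pools after the fourth selection round, barcoded by 20-cycle PCR and filtered for quality ≥30. Each round: phage incubated 1 h at RT on immobilised TIR protein (5 µg mL^−1, BSA-blocked), washed, HCl-eluted and amplified in E. coli TG1.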

[1] = selection against MyD88 TIR, rank by count after grouping
[2] = selection against MyD88 TIR, rank by count before grouping
[3] = 4R selection against MyD88, rank after grouping
[4] = 4R selection against MyD88, rank before grouping
[5] = P3_MyD88: rank by count after grouping
[6] = P3_MyD88: rank by count before grouping
[7] = selection against MyD88, rank by count after grouping
[8] = selection against MyD88, rank by count before grouping
[9] = selection against MyD88, rank after grouping
[10] = selection against MyD88, rank before grouping
[11] = P8_MyD88: rank by count after grouping
[12] = P8_MyD88: rank by count before grouping
[13] = P8_MyD88 pool: P8 T-Surf phage library
[14] = P3_MyD88 pool: P3 T-Surf phage library
[15] = P8_MyD88: rank by NGS read count after grouping
[16] = P8_MyD88: rank by NGS read count before grouping

T1 sequence (Q99836 148-296): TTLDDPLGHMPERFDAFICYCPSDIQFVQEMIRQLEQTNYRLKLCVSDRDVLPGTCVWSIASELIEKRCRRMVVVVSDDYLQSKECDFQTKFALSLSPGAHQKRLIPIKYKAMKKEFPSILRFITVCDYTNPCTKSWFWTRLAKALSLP

YTALINSGFHTFRDNH
P3_MyD88 Rank (after) [1]: 273
P3_MyD88 Rank (before) [2]: 1637

KEPENYRFALHERDFP
P3_MyD88 Rank (after) [3]: 662
P3_MyD88 Rank (before) [4]: 3685

EWIREQLRPALEKAGKL
Rank (after) [5]: 144
Rank (before) [6]: 649

KEVEGWRDALYEAANLS
P3_MyD88 Rank (after) [7]: 684
P3_MyD88 Rank (before) [8]: 3620

LKVESWRQALEKAGKLRYAM
P3_MyD88 Rank (after) [7]: 707
P3_MyD88 Rank (before) [8]: 2496

DQQDLDWFYERLVSVF
P8_MyD88 Rank (after) [9]: 505
P8_MyD88 Rank (before) [10]: 3051

DWVWDYMLTNLEGPAG
P8_MyD88 Rank (after) [7]: 708
P8_MyD88 Rank (before) [8]: 2455

NELVKVWSSKANRLVG
Rank (after) [5]: 393
Rank (before) [6]: 3447

LKVERWRQSLEKAGKL
P3_MyD88 Rank (after) [1]: 217
P3_MyD88 Rank (before) [2]: 2522

YAASPRWLDDLVNIVG
P8_MyD88 Rank (after) [9]: 521
P8_MyD88 Rank (before) [10]: 1754

DHHLNLPRGKSVKPEILG
P3_MyD88 Rank (after) [3]: 652
P3_MyD88 Rank (before) [4]: 2057

DHHLICRVAKRLNRKFW
Rank (after) [5]: 129
Rank (before) [6]: 631

EWIREQLRPELQERLP
Rank (after) [5]: 179
Rank (before) [6]: 2160

ELDFSHFWLFDGQATGEA
Rank (after) [11]: 120
Rank (before) [12]: 174
Population [13]: 0.00809%

WALDLDWFYERLVSLF
P8_MyD88 Rank (after) [1]: 225
P8_MyD88 Rank (before) [2]: 426

YAFTVHLHRYLVQRGG
Rank (after) [5]: 448
Rank (before) [6]: 1482

YLRADDLVLGKTAVC
P8_MyD88 Rank (after) [3]: 643
P8_MyD88 Rank (before) [4]: 2038

SSFREQLRPALKERLP
P3_MyD88 Rank (after) [1]: 215
P3_MyD88 Rank (before) [2]: 1210

AVDKETDKIQTPLKAQ
Rank (after) [5]: 390
Rank (before) [6]: 1919

DPQDLDRSYERLVSLC
P8_MyD88 Rank (after) [3]: 670
P8_MyD88 Rank (before) [4]: 2842

LGYQWIEWEYFVGIED
P8_MyD88 Rank (after) [1]: 250
P8_MyD88 Rank (before) [2]: 1186

NQWRNALTAAAYMSCR
Rank (after) [5]: 463
Rank (before) [6]: 3492

YASCDDFDYYLETAVLLRHL
P8_MyD88 Rank (after) [9]: 570
P8_MyD88 Rank (before) [10]: 1770

DPQDLDWFFERLVSLL
Rank (after) [11]: 117
Rank (before) [12]: 707

EWIREQLCLALKERLP
P3_MyD88 Rank (after) [3]: 637
P3_MyD88 Rank (before) [4]: 2133

SSFRKGLWRLLELSKK
Population [14]: 0.00408%

LNVEGWRQALEKAGKL
Rank (after) [5]: 131
Rank (before) [6]: 2401

ELWVLRYLLPTLEEQQ
Rank (after) [11]: 157
Rank (before) [12]: 173
Population [13]: 0.00809%

SELRVVDKETDKIQTPLKNA
Rank (after) [5]: 412
Rank (before) [6]: 3051

PQDQEWFYERIVSLP
P8_MyD88 Rank (after) [7]: 726
P8_MyD88 Rank (before) [8]: 3492

ELDFSHFWLFEARGDA
Population [13]: 0.0224%

DSFFWGRLLYSLHVTE
Rank (after) [15]: 970
Rank (before) [16]: 3074

HWIDWVWDYLLPNLEGPAG
P8_MyD88 Rank (after) [3]: 581
P8_MyD88 Rank (before) [4]: 3518

LKVEGWRRALEKAGNL
Rank (after) [5]: 467
Rank (before) [6]: 2470

YTALTNIGIHTFRDND
P3_MyD88 Rank (after) [1]: 223
P3_MyD88 Rank (before) [2]: 1655

YSFLSHLAAAFELHGI
P8_MyD88 Rank (after) [1]: 285
P8_MyD88 Rank (before) [2]: 543

MDYLLRILHSSNFTTF
Rank (after) [11]: 102
Rank (before) [12]: 105
Population [13]: 0.022%

QYSHTLLAHTSKFPDE
Rank (after) [5]: 432
Rank (before) [6]: 2847

NGHESEIIKEIVDTM
Rank (after) [5]: 436
Rank (before) [6]: 3365

DWVWEHFVGIEDHIK
P8_MyD88 Rank (after) [9]: 513
P8_MyD88 Rank (before) [10]: 2472

SSCREGLWRLLELIKK
P3_MyD88 Rank (after) [3]: 607
P3_MyD88 Rank (before) [4]: 3259

DLQDVGWFLSKLSQHI
Rank (after) [11]: 172
Rank (before) [12]: 203

EWIREHLRLALKERLP
Rank (after) [5]: 446
Rank (before) [6]: 2130

YYLDPSHLRKQSGESE
P3_MyD88 Rank (after) [1]: 255
P3_MyD88 Rank (before) [2]: 1460

YTALTNSSFHTFLDND
P3_MyD88 Rank (after) [1]: 219
P3_MyD88 Rank (before) [2]: 1696

KNLLNELVSKTIRTFM
Rank (after) [5]: 470
Rank (before) [6]: 3790

YLLRSLFQTLFPRRTE
Rank (after) [15]: 1013
Rank (before) [16]: 2020

SSFREGQWCLMELCKK
P3_MyD88 Rank (after) [1]: 280
P3_MyD88 Rank (before) [2]: 3218

EWIWDKLIYALSRNPH
P3_MyD88 Rank (after) [3]: 586
P3_MyD88 Rank (before) [4]: 2127

DWGWGYLLPNLEGPAG
P8_MyD88 Rank (after) [7]: 707
P8_MyD88 Rank (before) [8]: 2481

LFWANLRAALQGDLPY
Rank (after) [11]: 130
Rank (before) [12]: 143
Population [13]: 0.0116%

NQGRNALTAAADLSGW
P3_MyD88 Rank (after) [7]: 697
P3_MyD88 Rank (before) [8]: 3541

TSHFLDSYWAMFELNM
Rank (after) [11]: 140
Rank (before) [12]: 152
Population [13]: 0.01%

KEVEGWRGALTKKASL
P3_MyD88 Rank (after) [3]: 626
P3_MyD88 Rank (before) [4]: 3614

WDFASNMEQFWDRLLYA
P8_MyD88 Rank (after) [7]: 711
P8_MyD88 Rank (before) [8]: 1610

DFRSHLIETFGRMFIN
Rank (after) [11]: 465
Rank (before) [12]: 2370

SSGRECLWRLLELRKK
Rank (after) [5]: 415
Rank (before) [6]: 3270

DPQELDWIYQRLVSLF
P8_MyD88 Rank (after) [7]: 714
P8_MyD88 Rank (before) [8]: 2987

EDSIFYAVSSGALDEP
P8_MyD88 Rank (after) [7]: 697
P8_MyD88 Rank (before) [8]: 3174

LKVESWRQALGKAGKL
Population [14]: 0.00349%

YITWFDDIQQIQVFWV
Rank (after) [15]: 978
Rank (before) [16]: 2116

HLRKEFDKRLITSFKD
Rank (after) [5]: 387
Rank (before) [6]: 2800

KNLLNALMSKNIRTFM
P3_MyD88 Rank (after) [3]: 622
P3_MyD88 Rank (before) [4]: 3789

DSHESEIIKEIVDTIV
Rank (after) [5]: 163
Rank (before) [6]: 967

MNWCMCGAAKRIAWW
Rank (after) [5]: 170
Rank (before) [6]: 1156

WALDELLQILHAKETM
P8_MyD88 Rank (after) [3]: 598
P8_MyD88 Rank (before) [4]: 1458

IWVWDFYNSQLEGPMG
P8_MyD88 Rank (after) [7]: 753
P8_MyD88 Rank (before) [8]: 3609

DHHLDLPRGKAIKPEILGH
P3_MyD88 Rank (after) [9]: 483
P3_MyD88 Rank (before) [10]: 2026

PEKDNGGENALSITL
P3_MyD88 Rank (after) [1]: 218
P3_MyD88 Rank (before) [2]: 1121

LGYHWIDWEYFVALK
P8_MyD88 Rank (after) [1]: 235
P8_MyD88 Rank (before) [2]: 599

NERGHVWSSKANSLVG
P3_MyD88 Rank (after) [3]: 615
P3_MyD88 Rank (before) [4]: 3454

SSSREGLWRLLELSKK
Population [14]: 0.0032%

ELDFSHFWLFEAGGDA
Population [13]: 0.02%

SADYDDVGDRLIRMIE
Rank (after) [15]: 1024
Rank (before) [16]: 3747

YAFTGHFQRYLVQRGV
Rank (after) [5]: 422
Rank (before) [6]: 1485

NQQRFGGKVDAWKAAL
P3_MyD88 Rank (after) [1]: 281
P3_MyD88 Rank (before) [2]: 3542

DPQDLDWFYETSGEPD
Rank (after) [15]: 911
Rank (before) [16]: 2804
